The values below come from patent publication US8975406B2, “Compound useful for the treatment of degenerative and inflammatory diseases” (Galapagos N.V., priority 2011, dated 2015).

One experiment has as its target T1, Recombinant human JAK2 (Homo sapiens, UniProt O60674).
T1 construct: catalytic domain (amino acids 808-1132; catalog number PV4210); GST; purchased Invitrogen PV4210
As to the kind of experiment: JAK2 Ulight-JAK1 peptide assay. It is filed as biochemical. Particulars: Ulight-JAK1(tyr1023) peptide, 7.5 μM ATP. The procedure: Recombinant human JAK2 (catalytic domain, amino acids […]; catalog number PV4210) was purchased from Invitrogen. 0.0125 mU of JAK2 was incubated with 25 nM Ulight-JAK1(tyr1023) peptide (Perkin Elmer catalog number TRF0121) in kinase reaction buffer (25 mM HEPES pH7.0, 0.01% Triton X-100, 7.5 mM MgCl2, 2 mM DTT, 7.5 μM ATP) with or without 4 μL containing test compound or vehicle (DMSO, 1% final concentration), in a total volume of 20 μL, in a white 384 Opti plate (Perkin Elmer, catalog number 6007290). After 60 min at room temperature, reactions were stopped by adding 20 μL/well of detection mixture (1× detection buffer (Perkin Elmer, catalog number CR97-100C), 0.5 nM Europium-anti-phosphotyrosine (PT66) (Perkin Elmer, catalog number AD0068), 10 mM EDTA). Readout is performed using the Envision with excitation at 320 nm and measuring emission at 615 nm (Perkin Elmer). Kinase activity was calculated by subtracting relative fluorescence units (RFU) obtained in the presence of a positive control inhibitor (10 μM staurosporine) from RFU obtained in the presence of vehicle. The ability of a test compound to inhibit this activity was determined as: Percentage inhibition=((RFU determined for sample with test compound present−RFU determined for sample with positive control inhibitor)divided by(RFU determined in the presence of vehicle−RFU determined for sample with positive control inhibitor))*100.
Dose dilution series were prepared for each compound enabling the testing of dose-response effects in the JAK2 assay and the calculation of the IC50 for the compound. Each compound is routinely tested at concentration of 20 μM followed by a ⅕ serial dilution, 10 points in a final concentration of 1% DMSO. When potency of compound series increases, more dilutions are prepared and/or the top concentration are lowered (e.g. 5 μM, 1 μM). The data are expressed as the average IC50 from the assays±standard error of the mean.

For experiment [1], the target named is T2, Recombinant human TYK2 catalytic domain (Homo sapiens, UniProt P29597).
T2 construct: catalytic domain (amino acids 871-1187; catalog number 08-147); GST; purchased Carna Biosciences 08-147
T2 sequence (P29597 871-1187): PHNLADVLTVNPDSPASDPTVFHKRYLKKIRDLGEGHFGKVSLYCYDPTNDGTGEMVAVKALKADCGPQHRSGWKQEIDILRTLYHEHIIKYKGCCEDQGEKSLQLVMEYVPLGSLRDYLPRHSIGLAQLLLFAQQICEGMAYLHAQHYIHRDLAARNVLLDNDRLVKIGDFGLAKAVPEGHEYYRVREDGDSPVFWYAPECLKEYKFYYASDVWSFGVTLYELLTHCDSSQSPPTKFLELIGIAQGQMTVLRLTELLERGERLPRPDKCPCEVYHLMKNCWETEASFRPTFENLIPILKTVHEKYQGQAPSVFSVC
Put plainly: TYK2 inhibition assay. Type of experiment: biochemical. Particulars: polyGT substrate, 33P-gamma-ATP filter assay, 0.1 μM ATP. Here is the method: Recombinant human TYK2 catalytic domain (amino acids 871-1187; catalog number 08-147) was purchased from Carna biosciences. 4 ng of TYK2 was incubated with 12.5 μg polyGT substrate (Sigma catalog number P0275) in kinase reaction buffer (25 mM Hepes pH 7.2, 50 mM NaCl, 0.5 mM EDTA, 1 mM DTT, 5 mM MnCl2, 10 mM MgCl2, 0.1% Brij-35, 0.1 μM non-radioactive ATP, 0.125 μCi ^33P-gamma-ATP (Perkin Elmer, catalog number NEG602K001MC) final concentrations) with or without 5 μL containing test compound or vehicle (DMSO, 1% final concentration), in a total volume of 25 μL, in a polypropylene 96-well plate (Greiner, V-bottom). After 90 min at 30° C., reactions were stopped by adding 25 μL/well of 150 mM phosphoric acid. All of the terminated kinase reaction was transferred to prewashed (75 mM phosphoric acid) 96 well filter plates (Perkin Elmer catalog number 6005177) using a cell harvester (Perkin Elmer). Plates were washed 6 times with 300 μL per well of a 75 mM phosphoric acid solution and the bottom of the plates was sealed. 40 μL/well of Microscint-20 was added, the top of the plates was sealed and readout was performed using the Topcount (Perkin Elmer). Kinase activity was calculated by subtracting counts per min (cpm) obtained in the presence of a positive control inhibitor (10 μM staurosporine) from cpm obtained in the presence of vehicle. The ability of a test compound to inhibit this activity was determined as: Percentage inhibition=((cpm determined for sample with test compound present−cpm determined for sample with positive control inhibitor)divided by(cpm determined in the presence of vehicle−cpm determined for sample with positive control inhibitor))*100.
Dose dilution series were prepared for the compounds enabling the testing of dose-response effects in the TYK2 assay and the calculation of the IC50 for each compound. Each compound was routinely tested at concentration of 20 μM followed by a ⅓ serial dilution, 8 points (20 μM-6.67 μM-2.22 μM-740 nM-247 nM-82 nM-27 nM-9 nM) in a final concentration of 1% DMSO. When potency of compound series increased, more dilutions were prepared and/or the top concentration was lowered (e.g. 5 μM, 1 μM).

T1 sequence (O60674 808-1132): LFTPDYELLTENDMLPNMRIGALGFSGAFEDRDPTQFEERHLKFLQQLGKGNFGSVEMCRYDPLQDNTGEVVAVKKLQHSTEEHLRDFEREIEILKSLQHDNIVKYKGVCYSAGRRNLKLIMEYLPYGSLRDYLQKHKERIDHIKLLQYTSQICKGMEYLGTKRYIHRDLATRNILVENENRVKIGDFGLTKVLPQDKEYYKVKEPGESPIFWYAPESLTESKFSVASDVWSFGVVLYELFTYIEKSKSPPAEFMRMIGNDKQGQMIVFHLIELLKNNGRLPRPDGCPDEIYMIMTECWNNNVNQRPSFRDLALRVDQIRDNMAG

Take `N#Cc1ccc(COc2ccc(-c3cccn4nc(NC(=O)C5CC5)cc34)cc2)cn1` [Compound 9, N-(4-(4-((6-cyanopyridin-3-yl)methoxy)phenyl)pyrazolo[1,5-a]pyridin-2-yl)cyclopropanecarboxamide]: the IC50 (at Recombinant human JAK2; in experiment [1]) was 0.01 to 100 nM each time.
As for `CS(=O)(=O)N1CCN(Cc2ccc(-c3cccn4nc(NC(=O)C5CC5)cc34)cc2)CC1` [Compound 15, N-(4-(4-((4-(methylsulfonyl)piperazin-1-yl)methyl)phenyl)pyrazolo[1,5-a]pyridin-2-yl)cyclopropanecarboxamide], the IC50 (at Recombinant human JAK2; in experiment [1]) was 0.01 to 100 nM in each case.
Turning to `O=C(Nc1nn2cccc(-c3ccc(CN4CCS(=O)(=O)CC4)cc3)c2c1Cl)C1CC1` [Compound 13, Cyclopropanecarboxylic acid {4-[4-(1,1-dioxo-thiomorpholin-4-ylmethyl)-phenyl]-3-chloro-pyrazolo[1,5-a]pyridin-2-yl}-amide], the IC50 (at Recombinant human JAK2; in experiment [1]) was 0.01 to 100 nM throughout.
Turning to `O=C(Nc1cc2c(-c3ccc(C(=O)N4CCCCC4)cc3)cccn2n1)C1CC1` [Compound 14, Cyclopropanecarboxylic acid {4-[4-(piperidine-1-carbonyl)-phenyl]-pyrazolo[1,5-a]pyridin-2-yl}-amide], the IC50 (on Recombinant human JAK2; in experiment [1]) was 0.01 to 100 nM throughout.
As for `CS(=O)(=O)C1CCN(Cc2ccc(-c3cccn4nc(NC(=O)C5CC5)cc34)cc2F)CC1` [Compound 18, N-(4-(3-fluoro-4-((4-(methylsulfonyl)piperidin-1-yl)methyl)phenyl)pyrazolo[1,5-a]pyridin-2-yl)cyclopropanecarboxamide], the IC50 (on Recombinant human JAK2; in experiment [1]) was 0.01 to 100 nM throughout.
Regarding `CS(=O)(=O)N1CCN(Cc2ccc(-c3cccn4nc(NC(=O)C5CC5)cc34)cn2)CC1` [Compound 23, N-(4-(6-((4-(methylsulfonyl)piperazin-1-yl)methyl)pyridin-3-yl)pyrazolo[1,5-a]pyridin-2-yl)cyclopropanecarboxamide], the IC50 (at Recombinant human JAK2; in experiment [1]) was 101 to 500 nM each time.
For the molecule `O=C(Nc1cc2c(-c3ccc(CN4CCCCC45COC5)cc3)cccn2n1)C1CC1` [Compound 48, N-(4-(4-(2-oxa-5-azaspiro[3.5]nonan-5-ylmethyl)phenyl)pyrazolo[1,5-a]pyridin-2-yl)cyclopropanecarboxamide], the IC50 (at Recombinant human JAK2; in experiment [1]) was 101 to 500 nM in each case.
Take `O=C(Nc1cc2c(-c3ccc4[nH]ccc4c3)cccn2n1)C1CC1` [Compound 4, N-(4-(1H-indol-5-yl)pyrazolo[1,5-a]pyridin-2-yl)cyclopropanecarboxamide]: the 50% inhibitory concentration (IC50) (on Recombinant human JAK2; in experiment [1]) was 0.01 to 100 nM in each case.
For the molecule `CC(=O)Nc1cc2c(-c3ccc(CC(=O)N4CCOCC4)cc3)cccn2n1` [Compound 36, N-(4-(4-(2-morpholino-2-oxoethyl)phenyl)pyrazolo[1,5-a]pyridin-2-yl)acetamide], the IC50 (on Recombinant human JAK2; in experiment [1]) was 0.01 to 100 nM throughout.
In the case of `CC(=O)Nc1cc2c(-c3cnc(CN4CCN(S(C)(=O)=O)CC4)c(F)c3)cccn2n1` [Compound 26, N-(4-(5-fluoro-6-((4-(methylsulfonyl)piperazin-1-yl)methyl)pyridin-3-yl)pyrazolo[1,5-a]pyridin-2-yl)acetamide], the 50% inhibitory concentration (IC50) was 101 to 500 nM at Recombinant human JAK2 and over 1000 nM in experiment [1].
For `O=C(Nc1cc2c(-c3ccc(CN4CCS(=O)(=O)CC4)cc3)cccn2n1)C1CC1` [Compound 10, Cyclopropanecarboxylic acid {4-[4-(1,1-dioxo-thiomorpholin-4-ylmethyl)-phenyl]-pyrazolo[1,5-a]pyridin-2-yl}-amide], in that order: 0.01 to 100 nM and 0.01 to 100 nM.
For `O=C(Nc1cc2c(-c3ccc4c(ccn4Cc4ccccc4)c3)cccn2n1)C1CC1` [Compound 3, N-(4-(1-benzyl-1H-indol-5-yl)pyrazolo[1,5-a]pyridin-2-yl)cyclopropanecarboxamide], in that order: 101 to 500 nM and 101 to 500 nM.
For `O=C(NCCc1ccccc1)c1ccc(-c2cccn3nc(NC(=O)C4CC4)cc23)cc1` [Compound 5, 4-(2-(cyclopropanecarboxamido)pyrazolo[1,5-a]pyridin-4-yl)-N-phenethylbenzamide], the IC50 (on Recombinant human JAK2; in experiment [1]) was 0.01 to 100 nM in each case.
For `CC(=O)Nc1cc2c(-c3ccc(CC(=O)N4CCCCC4)cc3)cccn2n1` [Compound 35, N-(4-(4-(2-oxo-2-(piperidin-1-yl)ethyl)phenyl)pyrazolo[1,5-a]pyridin-2-yl)acetamide], the IC50 (on Recombinant human JAK2; in experiment [1]) was 0.01 to 100 nM throughout.
Regarding `CS(=O)(=O)C1CCN(Cc2ccc(-c3cccn4nc(NC(=O)C5CC5)c(Cl)c34)cc2F)CC1` [Compound 20, N-(3-chloro-4-(3-fluoro-4-((4-(methylsulfonyl)piperidin-1-yl)methyl)phenyl)pyrazolo[1,5-a]pyridin-2-yl)cyclopropanecarboxamide], the IC50 was 101 to 500 nM at Recombinant human JAK2 and 0.01 to 100 nM in experiment [1].
For `O=C(Nc1nn2cccc(-c3ccc(CN4CCS(=O)(=O)CC4)cc3)c2c1F)C1CC1` [Compound 11, Cyclopropanecarboxylic acid {4-[4-(1,1-dioxo-thiomorpholin-4-ylmethyl)-phenyl]-3-fluoro-pyrazolo[1,5-a]pyridin-2-yl}-amide], in that order: 0.01 to 100 nM and 0.01 to 100 nM.
For `CC(=O)Nc1cc2c(-c3ccc(CN4CCS(=O)(=O)CC4)c(F)c3)cccn2n1` [Compound 27, N-{4-[4-(1,1-Dioxo-thiomorpholin-4-ylmethyl)-3-fluoro-phenyl]-pyrazolo[1,5-a]pyridin-2-yl}-acetamide], in that order: 0.01 to 100 nM and 0.01 to 100 nM.

For orientation: IC50 means the concentration that inhibits the measured activity by half.
